# Source: the supplement of paper PMC11061612
# Experiments:
# AZD2811 = compound: CCN(CCO)CCCOc1ccc2c(Nc3cc(CC(=O)Nc4cccc(F)c4)[nH]n3)ncnc2c1 [AZD2811]; conditions: max 1 µM
# In short: (§1)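 Cancer cell lines were seeded in 1536-well plates in 7.5 μl DMEM/F12 or RPMI with 10% FBS, held 24 hours at 37°C and 5% CO2, then dosed for 72 hours (final DMSO typically 0.2%). Viability was read by CellTiter-Glo 2.0 luminescence and scaled between blank-well and DMSO-well means. The single-agent IC50 comes from dose responses fitted to a two-parameter logistic curve with a non-linear mixed effects model.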
# SN-38 = compound: CCc1c2c(nc3ccc(O)cc13)-c1cc3c(c(=O)n1C2)COC(=O)[C@]3(O)CC [SN-38]; conditions: max 0.3 µM
# In short: as §1
# AZD5991 = compound: Cc1c2c(nn1C)CSCc1cc(n(C)n1)CSc1cc(c3ccccc3c1)OCCCc1c(C(=O)O)n(C)c3c-2c(Cl)ccc13 [AZD5991]; conditions: max 1 µM
# In short: as §1
# Gefitinib = compound: COc1cc2ncnc(Nc3ccc(F)c(Cl)c3)c2cc1OCCCN1CCOCC1 [Gefitinib]; conditions: max 10 µM
# In short: as §1
# Lapatinib = compound: CS(=O)(=O)CCNCc1ccc(-c2ccc3ncnc(Nc4ccc(OCc5cccc(F)c5)c(Cl)c4)c3c2)o1 [Lapatinib]; conditions: max 10 µM
# In short: as §1
# AZD5153 = compound: COc1nnc2ccc(N3CCC(c4ccc(OCCN5CCN(C)C(=O)[C@H]5C)cc4)CC3)nn12 [AZD5153]; conditions: max 1 µM
# In short: as §1
# Carboplatin = compound: C1CC(C1)(C(=O)[O-])C(=O)[O-].N.N.[Pt+2] [Carboplatin]; conditions: max 10 µM
# In short: as §1
# AZD4320 = compound: CN(CC[C@H](CSC1=CC=CC=C1)NC2=C(C=C(C=C2)S(=O)(=O)NC(=O)C3=CC=C(C=C3)N4CCC(CC4)[C@H](C5=CC=CC=C5C6=CC=C(C=C6)Cl)O)S(=O)(=O)C(F)(F)F)CCO [AZD4320]; conditions: max 1 µM
# In short: as §1
# [1] = compound: O=C(Nc1ccc2[nH]nc(-c3ccncc3)c2c1)[C@@H]1CCN(CC(=O)N2CCN(c3ccc(-c4ncccn4)cc3)CC2)C1; conditions: max 5 µM
# In short: as §1
# Etoposide = compound: COc1cc([C@@H]2c3cc4c(cc3[C@@H](O[C@@H]3O[C@@H]5CO[C@@H](C)O[C@H]5[C@H](O)[C@H]3O)[C@H]3COC(=O)[C@H]23)OCO4)cc(OC)c1O [Etoposide]; conditions: max 10 µM
# In short: as §1
# 5-Fluorouracil = compound: O=c1[nH]cc(F)c(=O)[nH]1 [5-Fluorouracil]; conditions: max 20 µM
# In short: as §1
# Prexasertib = compound: COc1cccc(OCCCN)c1-c1cc(Nc2cnc(C#N)cn2)n[nH]1 [Prexasertib]; conditions: max 1 µM
# In short: as §1
# Crizotinib = compound: C[C@@H](Oc1cc(-c2cnn(C3CCNCC3)c2)cnc1N)c1c(Cl)ccc(F)c1Cl [Crizotinib]; conditions: max 10 µM
# In short: as §1
# Paclitaxel = compound: CC(=O)O[C@H]1C(=O)[C@@]2(C)[C@H]([C@H](OC(=O)c3ccccc3)[C@]3(O)C[C@H](OC(=O)[C@H](O)[C@@H](NC(=O)c4ccccc4)c4ccccc4)C(C)=C1C3(C)C)[C@]1(OC(C)=O)CO[C@@H]1C[C@@H]2O [Paclitaxel]; conditions: max 3 µM
# In short: as §1
# Gemcitabine = compound: Nc1ccn([C@@H]2O[C@H](CO)[C@@H](O)C2(F)F)c(=O)n1 [Gemcitabine]; conditions: max 0.3 µM
# In short: as §1
# AZD5363 = compound: C1CN(CCC1(C(=O)N[C@@H](CCO)C2=CC=C(C=C2)Cl)N)C3=NC=NC4=C3C=CN4 [AZD5363]; conditions: max 10 µM
# In short: as §1
# AZD7648 = compound: Cc1cc2ncnn2cc1Nc1ncc2c(n1)n(C1CCOCC1)c(=O)n2C [AZD7648]; conditions: max 10 µM
# In short: as §1
# Alisertib = compound: COc1cc(Nc2ncc3c(n2)-c2ccc(Cl)cc2C(c2c(F)cccc2OC)=NC3)ccc1C(=O)O [Alisertib]; conditions: max 10 µM
# In short: as §1
# Selumetinib = compound: Cn1cnc2c(F)c(Nc3ccc(Br)cc3Cl)c(C(=O)NOCCO)cc21 [Selumetinib]; conditions: max 10 µM
# In short: as §1
# AZD1390 = compound: CC(C)n1c(=O)n(C)c2cnc3cc(F)c(-c4ccc(OCCCN5CCCCC5)nc4)cc3c21 [AZD1390]; conditions: max 0.3 µM
# In short: as §1
# Savolitinib = compound: C[C@@H](c1ccc2nccn2c1)n1nnc2ncc(-c3cnn(C)c3)nc21 [Savolitinib]; conditions: max 1 µM
# In short: as §1
# AZD1775 = compound: C=CCn1c(=O)c2cnc(Nc3ccc(N4CCN(C)CC4)cc3)nc2n1-c1cccc(C(C)(C)O)n1 [AZD1775]; conditions: max 3 µM
# In short: as §1
# Doxorubicin = compound: COc1cccc2c1C(=O)c1c(O)c3c(c(O)c1C2=O)C[C@@](O)(C(=O)CO)C[C@@H]3O[C@H]1C[C@H](N)[C@H](O)[C@H](C)O1 [Doxorubicin]; conditions: max 1 µM
# In short: as §1
# AZD0156 = compound: CN(C)CCCOc1ccc(-c2ccc3ncc4c(c3c2)n(C2CCOCC2)c(=O)n4C)cn1 [AZD0156]; conditions: max 3 µM
# In short: as §1
# AZD8186 = compound: C[C@@H](Nc1cc(F)cc(F)c1)c1cc(C(=O)N(C)C)cc2c(=O)cc(N3CCOCC3)oc12 [AZD8186]; conditions: max 10 µM
# In short: as §1
# Trametinib = compound: CC(=O)Nc1cccc(-n2c(=O)n(C3CC3)c(=O)c3c(Nc4ccc(I)cc4F)n(C)c(=O)c(C)c32)c1 [Trametinib]; conditions: max 1 µM
# In short: as §1
# SG3199 = compound: CC1=CN2[C@@H](C1)C=NC3=CC(=C(C=C3C2=O)OC)OCCCCCOC4=C(C=C5C(=C4)N=C[C@@H]6CC(=CN6C5=O)C)OC [SG3199]; conditions: max 0.001 µM
# In short: as §1
# Palbociclib = compound: CC(=O)c1c(C)c2cnc(Nc3ccc(N4CCNCC4)cn3)nc2n(C2CCCC2)c1=O [Palbociclib]; conditions: max 10 µM
# In short: as §1
# Venetoclax = compound: CC1(C)CCC(CN2CCN(c3ccc(C(=O)NS(=O)(=O)c4ccc(NCC5CCOCC5)c([N+](=O)[O-])c4)c(Oc4cnc5[nH]ccc5c4)c3)CC2)=C(c2ccc(Cl)cc2)C1 [Venetoclax]; conditions: max 1 µM
# In short: as §1
# Dasatinib = compound: CC1=C(C(=CC=C1)Cl)NC(=O)C2=CN=C(S2)NC3=CC(=NC(=N3)C)N4CCN(CC4)CCO [Dasatinib]; conditions: max 2 µM
# In short: as §1
# Olaparib = compound: O=C(c1cc(Cc2n[nH]c(=O)c3ccccc23)ccc1F)N1CCN(C(=O)C2CC2)CC1 [Olaparib]; conditions: max 10 µM
# In short: as §1
# Taselisib = compound: Cc1nc(-c2cn3c(n2)-c2ccc(-c4cnn(C(C)(C)C(N)=O)c4)cc2OCC3)n(C(C)C)n1 [Taselisib]; conditions: max 10 µM
# In short: as §1
# SRA737 = compound: N#Cc1cnc(Nc2cc(NC[C@H]3CNCCO3)c(C(F)(F)F)cn2)cn1 [SRA737]; conditions: max 10 µM
# In short: as §1
# AZD6738 = compound: C[C@@H]1COCCN1C2=NC(=NC(=C2)C3(CC3)[S@](=N)(=O)C)C4=C5C=CNC5=NC=C4 [AZD6738]; conditions: max 10 µM
# In short: as §1
# MK-2206 = compound: NC1(c2ccc(-c3nc4ccn5c(=O)[nH]nc5c4cc3-c3ccccc3)cc2)CCC1 [MK-2206]; conditions: max 10 µM
# In short: as §1
Cell Line,"IC50, cell viability 72 h (AZD2811) [µM]","IC50, cell viability 72 h (SN-38) [µM]","IC50, cell viability 72 h (AZD5991) [µM]","IC50, cell viability 72 h (Gefitinib) [µM]","IC50, cell viability 72 h (Lapatinib) [µM]","IC50, cell viability 72 h (AZD5153) [µM]","IC50, cell viability 72 h (Carboplatin) [µM]","IC50, cell viability 72 h (AZD4320) [µM]","IC50, cell viability 72 h [1] [µM]","IC50, cell viability 72 h (Etoposide) [µM]","IC50, cell viability 72 h (5-Fluorouracil) [µM]","IC50, cell viability 72 h (Prexasertib) [µM]","IC50, cell viability 72 h (Crizotinib) [µM]","IC50, cell viability 72 h (Paclitaxel) [µM]","IC50, cell viability 72 h (Gemcitabine) [µM]","IC50, cell viability 72 h (AZD5363) [µM]","IC50, cell viability 72 h (AZD7648) [µM]","IC50, cell viability 72 h (Alisertib) [µM]","IC50, cell viability 72 h (Selumetinib) [µM]","IC50, cell viability 72 h (AZD1390) [µM]","IC50, cell viability 72 h (Savolitinib) [µM]","IC50, cell viability 72 h (AZD1775) [µM]","IC50, cell viability 72 h (Doxorubicin) [µM]","IC50, cell viability 72 h (AZD0156) [µM]","IC50, cell viability 72 h (AZD8186) [µM]","IC50, cell viability 72 h (Trametinib) [µM]","IC50, cell viability 72 h (SG3199) [µM]","IC50, cell viability 72 h (Palbociclib) [µM]","IC50, cell viability 72 h (Venetoclax) [µM]","IC50, cell viability 72 h (Dasatinib) [µM]","IC50, cell viability 72 h (Olaparib) [µM]","IC50, cell viability 72 h (Taselisib) [µM]","IC50, cell viability 72 h (SRA737) [µM]","IC50, cell viability 72 h (AZD6738) [µM]","IC50, cell viability 72 h (MK-2206) [µM]"
SNU-C1 (Colorectal Carcinoma),> 1,> 0.3,> 1,> 10,> 10,> 1,> 10,> 1,0.802,> 10,> 20,0.0735,> 10,> 3,> 0.3,> 10,> 10,> 10,1.26,> 0.3,> 1,> 3,> 1,> 3,> 10,0.0751,> 0.001,> 10,> 1,> 2,> 10,3.36,> 10,> 10,9.53
TGBC11TKB (Gastric Carcinoma),> 1,0.159,> 1,> 10,> 10,> 1,> 10,> 1,> 5,> 10,> 20,0.0112,> 10,0.0204,0.0454,> 10,> 10,> 10,8.4,> 0.3,> 1,0.287,> 1,> 3,> 10,0.522,> 0.001,> 10,> 1,> 2,> 10,> 10,1.71,2.02,> 10
VMRC-LCD (Lung Adenocarcinoma),0.745,> 0.3,> 1,> 10,> 10,0.802,> 10,> 1,> 5,> 10,> 20,0.115,5.71,0.019,> 0.3,> 10,> 10,0.668,> 10,> 0.3,> 1,> 3,> 1,> 3,> 10,> 1,> 0.001,> 10,> 1,> 2,> 10,> 10,> 10,> 10,> 10
